The values that follow come from patent US20220000832A1 (priority 2019, published 2022).

Like-named read-outs stand apart in the source and are kept apart here.

The subject of series [1] is melb-a cells (melanoblasts). The series can be described thus: cells. In kind it is cell-based. To be noted: for fold induction at 1 µM / fold induction at 10 µM / fold induction at 100 µM: read-out: Increase of cell migration rate compared to negative control.
Series [2] relates to Melb-a (melanoblast) cells. The series can be described thus: cells. In kind it is cell-based.
Series [3] has as its system Melb-a (melanoblast) cells.
The mark [4] stands for this setting: 24 h, read-out: Cell migration rate (%).
The mark [5] stands for this setting: 96 h, read-out: Melanin content compared to negative control (%).

For `COC(=O)c1ccc(C=O)o1` [Example 10, methyl 5-formylfuran-2-carboxylate], in series [1], the “Cell migration rate compared to negative control (in words)” value is recorded as “gradually increased”. In series [1] (24 h), the fold induction at 1 µM was approximately 1.9 and the fold induction at 10 µM is more than 2. Moreover, the fold induction at 100 µM in series [1] (24 h, 100 μM) is approximately 2.7. Besides, in series [1] (setting [4]), the activity at 1 µM turned out to be 189 ± 11.4% and the activity at 100 µM was 283 ± 7.03%. Besides, in series [2], the “Melanin content compared to negative control (in words)” value is listed as “gradually increased”. Moreover, the “Melanin content (in words)” value in series [2] (100 μM) is listed as “somewhat reduced”. Moreover, in series [2] (setting [5]), the activity at 1 µM was 136 ± 5.19% and the activity at 100 µM was found to be 159 ± 1.77%. Further, the Cell viability in series [3] (mouse) was not below 99%.
For the molecule `COC(=O)c1ccc(CO)o1` [Example 13, methyl 5-(hydroxymethyl)furan-2-carboxylate], the activity at 10 µM in series [1] (setting [4]) is 161 ± 29.4%; in series [2] (setting [5]), 145 ± 5.9%.
Take `CNC(=O)c1ccc(C=O)o1` [Example 6, 5-formyl-N-methylfuran-2-carboxamide]: the activity at 10 µM turned out to be 139 ± 17.5% in series [1] (setting [4]) and 95.9 ± 2.87% in series [2] (setting [5]).
As for `O=C(O)c1ccc(CO)o1` [Example 14, 5-(hydroxymethyl)furan-2-carboxylic Acid], the fold induction at 10 µM in series [1] (24 h) was more than 2. Besides, the values for the activity at 10 µM in series [1] (setting [4]) and in series [2] (setting [5]) were 264 ± 7.81% and 158.4 ± 0.75%, respectively.
Regarding `OCc1ccc(CO)o1` [Example 12, Furan-2,5-diyldimethanol], the activity at 10 µM in series [1] (setting [4]) was found to be 173 ± 29.9%; in series [2] (setting [5]), 139 ± 1.6%.
`O=Cc1ccc(COCc2ccccc2)o1` [Example 2, 5-((benzyloxy)methyl)furan-2-carbaldehyde]: the activity at 10 µM in series [1] (setting [4]) was found to be 114 ± 18.9%; in series [2] (setting [5]), 82.4 ± 4.25%.
For the molecule `CC(O)c1ccc(COC2CCCCO2)o1` (centres unmarked) [Example 15, 1-(5-(((tetrahydro-2H-pyran-2-yl)oxy)methyl)furan-2-yl)ethanol], the activity at 10 µM in series [1] (setting [4]) came out at 197 ± 33.8%; in series [2] (setting [5]) it was 144 ± 4.59%.
Consider `CC(=O)OC(C)c1ccc(C=O)o1` (centres unmarked) [Example 19, 1-(5-formylfuran-2-yl)ethyl Acetate], for which the fold induction at 10 µM in series [1] (24 h) is more than 2. For the same molecule, the activity at 10 µM in series [1] (setting [4]) was 230 ± 25.1%; in series [2] (setting [5]), 116 ± 3.15%.
As to `CC(O)c1ccc(C=O)o1` (centres unmarked) [Example 18, 5-(1-hydroxyethyl)furan-2-carbaldehyde], in series [1], the “Cell migration rate compared to negative control (in words)” value was “gradually increased”. Moreover, the “Cell migration rate (in words)” value in series [1] (100 μM) was “rather decreased”. Besides, in series [1] (24 h), the fold induction at 1 µM is approximately 1.7 and the fold induction at 10 µM was more than 2. In addition, in series [1] (setting [4]), the activity at 1 µM came out at 177 ± 25.5% and the activity at 100 µM was 167 ± 20.3%. In addition, in series [2], the “Melanin content compared to negative control (in words)” value was “slightly increased”. Besides, the “Melanin content (in words)” value in series [2] (100 μM) was “decreased”. Moreover, in series [2] (setting [5]), the activity at 1 µM worked out at 125 ± 3.04% and the activity at 100 µM is 128 ± 4.15%.
With `O=Cc1ccc(C(=O)OCc2ccccc2)o1` [Example 7, Benzyl 5-formylfuran-2-carboxylate], the fold induction at 10 µM in series [1] (24 h) is more than 2. For the same molecule, the activity at 10 µM in series [1] (setting [4]) was 202 ± 61.9%; in series [2] (setting [5]), 134 ± 2.32%.
Consider `CCC(OC(C)=O)c1ccc(C=O)o1` (centres unmarked) [Example 21, 1-(5-formylfuran-2-yl)propyl Acetate], for which, in series [1] (24 h), the fold induction at 10 µM was more than 2. In addition, the values for the activity at 10 µM in series [1] (setting [4]) and in series [2] (setting [5]) were 260 ± 16.5% and 115 ± 2.96%, respectively.
Consider `O=Cc1ccc(CO)o1` [Example 1, 5-(hydroxymethyl)furan-2-carbaldehyde], for which, in series [1], the “Cell migration rate (in words)” value is reported as “decreased” and the “Cell migration rate compared to negative control (in words)” value was “gradually increased”. In addition, in series [1] (24 h), the fold induction at 1 µM came out at 2 and the fold induction at 10 µM is 2.7. In addition, the fold induction at 100 µM in series [1] (24 h, 100 μM) was approximately 4. Moreover, in series [1] (setting [4]), the activity at 25 µM was determined as 263 ± 12.7%, the activity at 50 µM came out at 309 ± 15.5% and the activity at 1000 µM came to 253 ± 13.4%. Moreover, the “Melanin content compared to negative control (in words)” value in series [2] is recorded as “gradually increased”. Further, in series [2] (1000 μM), the “Melanin content (in words)” value was “rather reduced”. Also, in series [2] (setting [5]), the activity at 1000 µM was determined as 149 ± 17.4%. Moreover, the Cell viability in series [3] (mouse) is not below 105%.
Regarding `CCOC(=O)c1ccc(CO)o1` [Example 11, ethyl 5-(hydroxymethyl)furan-2-carboxylate], the activity at 10 µM in series [1] (setting [4]) came out at 112 ± 13.9%; in series [2] (setting [5]) it was 104 ± 4.63%.
Regarding `O=Cc1ccc(C=O)o1` [Example 17, Furan-2,5-dicarbaldehyde], the activity at 10 µM in series [1] (setting [4]) stood at 118 ± 21.9%; in series [2] (setting [5]), 95.3 ± 6.49%. Besides, the “Melanin content compared to negative control (in words)” value in series [2] (10 μM) is given as “lowered”. The results for the “Cell viability (in words)” value in series [3] and in series [3] (mouse) were “very low” and “low compared to when the compound of Example 1 was treated”, respectively. For the same molecule, the “Cell viability (%)” value in series [3] (mouse) is listed as 23.08 ± 5.95%.
On to `O=Cc1ccc(C(=O)NCc2ccccc2)o1` [Example 4, N-benzyl-5-formylfuran-2-carboxamide], for which the activity at 10 µM in series [1] (setting [4]) turned out to be 115 ± 19.5%; in series [2] (setting [5]), 97.4 ± 4.47%.
As to `CCC(O)c1ccc(C=O)o1` (centres unmarked) [Example 20, 5-(1-hydroxypropyl)furan-2-carbaldehyde], the fold induction at 10 µM in series [1] (24 h) is more than 2. In addition, the activity at 10 µM in series [1] (setting [4]) came out at 261 ± 16.8%; in series [2] (setting [5]), 112 ± 1.5%.
Consider `CCCNC(=O)c1ccc(C=O)o1` [Example 5, 5-formyl-N-propylfuran-2-carboxamide], for which the fold induction at 10 µM in series [1] (24 h) was more than 2. For the same molecule, the activity at 10 µM in series [1] (setting [4]) was found to be 229 ± 11.6%; in series [2] (setting [5]), 94.3 ± 1.51%.
The matching figures for `CC(O)c1ccc(CO)o1` (centres unmarked) [Example 16, 1-(5-(hydroxymethyl)furan-2-yl)ethanol]: more than 2, 215 ± 13.9% and 139 ± 19.9%.
As for `C=CCOC(=O)c1ccc(C=O)o1` [Example 8, allyl 5-formylfuran-2-carboxylate], the activity at 10 µM in series [1] (setting [4]) is 178 ± 19.8%; in series [2] (setting [5]) it was 122 ± 5.15%.
On the same counts, the results for `C=CCOCc1ccc(C=O)o1` [Example 3, 5-((allyloxy)methyl)furan-2-carbaldehyde] are 134 ± 11.7% and 95.2 ± 7.54%.
Turning to `COC(=O)c1ccc(C(OC)OC)o1` [Example 9, methyl 5-(dimethoxymethyl)furan-2-carboxylate], the “Cell migration rate compared to negative control (in words)” value in series [1] is “gradually increased”. Moreover, in series [1] (24 h), the fold induction at 1 µM is approximately 1.9 and the fold induction at 10 µM is more than 2. In addition, in series [1] (24 h, 100 μM), the fold induction at 100 µM is approximately 3. In series [1] (setting [4]), the activity at 1 µM was 198 ± 6.81% and the activity at 100 µM is 303 ± 18.7%. Besides, the “Melanin content compared to negative control (in words)” value in series [2] is “gradually increased”. In series [2] (setting [5]), the activity at 1 µM stood at 128 ± 7.18%, the activity at 10 µM was found to be 131 ± 2.03% and the activity at 100 µM worked out at 142 ± 5.43%. Also, the Cell viability in series [3] (mouse) is listed as not below 99%.
